This is an account of results in ChEMBL document CHEMBL1131296 (J Med Chem, 1998).

Some results are limits rather than exact numbers.

Assay [1] concerns the target T1, Alpha-1A adrenergic receptor (Homo sapiens, UniProt P35348).
T1 sequence (P35348 whole entry): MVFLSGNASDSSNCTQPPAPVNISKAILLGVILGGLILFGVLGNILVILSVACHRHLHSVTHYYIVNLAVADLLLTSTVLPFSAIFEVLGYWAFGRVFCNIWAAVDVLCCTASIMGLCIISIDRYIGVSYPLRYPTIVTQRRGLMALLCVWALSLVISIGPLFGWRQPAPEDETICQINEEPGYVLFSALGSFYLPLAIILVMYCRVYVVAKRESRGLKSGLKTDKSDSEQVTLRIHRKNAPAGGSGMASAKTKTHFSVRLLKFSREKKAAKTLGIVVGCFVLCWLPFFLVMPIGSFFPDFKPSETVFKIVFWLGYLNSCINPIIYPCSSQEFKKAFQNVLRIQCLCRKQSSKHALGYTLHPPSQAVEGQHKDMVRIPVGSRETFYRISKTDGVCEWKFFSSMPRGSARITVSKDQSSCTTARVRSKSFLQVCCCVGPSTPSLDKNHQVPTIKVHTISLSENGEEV
In words: Binding affinity at human cloned Alpha-1A adrenergic receptor in chinese hamster ovary cells by [3H]-prazosin displacement. The format is cell-based, CHO.

For assay [2], the target named is T2, Alpha-1A adrenergic receptor (Rattus norvegicus, UniProt P43140).
T2 sequence (P43140 whole entry): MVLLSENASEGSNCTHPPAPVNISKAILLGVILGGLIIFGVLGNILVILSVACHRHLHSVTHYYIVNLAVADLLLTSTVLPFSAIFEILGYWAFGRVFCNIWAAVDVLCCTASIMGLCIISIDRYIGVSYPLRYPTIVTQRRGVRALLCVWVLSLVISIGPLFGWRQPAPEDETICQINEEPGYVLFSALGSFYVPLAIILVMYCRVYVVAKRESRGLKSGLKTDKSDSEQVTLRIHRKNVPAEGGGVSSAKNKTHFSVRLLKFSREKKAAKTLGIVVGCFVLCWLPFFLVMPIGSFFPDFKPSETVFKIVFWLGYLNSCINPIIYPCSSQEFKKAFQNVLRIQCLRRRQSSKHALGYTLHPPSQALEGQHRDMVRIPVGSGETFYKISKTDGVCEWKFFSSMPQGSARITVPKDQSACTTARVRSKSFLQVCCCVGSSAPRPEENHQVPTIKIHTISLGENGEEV
Briefly: Antagonism of the norepinephrine induced contraction of rat isolated prostatic vas deferens. As to conditions: read-out: pA2 (converted). The format is functional.

For assay [3], the target named is T3, Adrenergic receptor alpha-2 (Rattus norvegicus, UniProt P22086+P19328+P22909).
T3 sequence (P22086 whole entry): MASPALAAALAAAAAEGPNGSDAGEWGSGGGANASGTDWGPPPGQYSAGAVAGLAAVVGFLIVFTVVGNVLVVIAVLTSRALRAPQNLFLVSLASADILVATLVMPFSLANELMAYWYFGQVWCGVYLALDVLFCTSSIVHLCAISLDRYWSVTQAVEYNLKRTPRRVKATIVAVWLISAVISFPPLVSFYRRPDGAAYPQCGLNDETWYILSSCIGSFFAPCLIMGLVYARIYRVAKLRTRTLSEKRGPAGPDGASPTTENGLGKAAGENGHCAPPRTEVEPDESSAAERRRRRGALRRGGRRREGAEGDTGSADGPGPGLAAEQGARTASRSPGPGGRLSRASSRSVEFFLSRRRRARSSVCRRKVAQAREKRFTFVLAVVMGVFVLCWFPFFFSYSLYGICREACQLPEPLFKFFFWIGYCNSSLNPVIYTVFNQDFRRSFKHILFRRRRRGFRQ
T3 sequence (P19328 whole entry): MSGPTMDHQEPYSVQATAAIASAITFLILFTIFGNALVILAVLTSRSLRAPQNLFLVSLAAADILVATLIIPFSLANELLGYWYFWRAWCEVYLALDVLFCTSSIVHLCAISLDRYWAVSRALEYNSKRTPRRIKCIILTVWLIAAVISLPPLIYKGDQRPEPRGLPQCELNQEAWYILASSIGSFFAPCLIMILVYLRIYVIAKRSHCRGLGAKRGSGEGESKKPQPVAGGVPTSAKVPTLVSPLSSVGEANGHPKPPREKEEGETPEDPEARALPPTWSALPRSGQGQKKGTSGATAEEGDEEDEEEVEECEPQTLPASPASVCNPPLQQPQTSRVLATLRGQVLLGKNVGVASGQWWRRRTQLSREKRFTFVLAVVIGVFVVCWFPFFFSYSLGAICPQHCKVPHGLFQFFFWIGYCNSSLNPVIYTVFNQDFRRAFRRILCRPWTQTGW
T3 sequence (P22909 whole entry): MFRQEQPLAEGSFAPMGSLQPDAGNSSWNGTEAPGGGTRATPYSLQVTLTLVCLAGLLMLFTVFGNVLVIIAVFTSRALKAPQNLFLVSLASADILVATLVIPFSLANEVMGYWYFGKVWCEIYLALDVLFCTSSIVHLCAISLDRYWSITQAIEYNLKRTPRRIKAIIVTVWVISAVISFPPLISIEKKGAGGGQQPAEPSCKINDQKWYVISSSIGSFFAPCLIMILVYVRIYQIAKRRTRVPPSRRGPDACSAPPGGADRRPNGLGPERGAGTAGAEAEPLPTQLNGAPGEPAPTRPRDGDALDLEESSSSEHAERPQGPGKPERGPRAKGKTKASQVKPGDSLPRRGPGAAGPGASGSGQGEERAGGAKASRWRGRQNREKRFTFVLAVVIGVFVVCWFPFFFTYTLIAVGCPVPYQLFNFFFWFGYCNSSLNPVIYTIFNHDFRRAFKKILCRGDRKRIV
Briefly: Binding affinity at native Alpha-2 adrenergic receptor in rat cerebral cortex by [3H]rauwolscine displacement. In kind it is tissue-based.

Assay [4] addresses T4, Alpha-1D adrenergic receptor (Homo sapiens, UniProt P25100).
T4 sequence (P25100 whole entry): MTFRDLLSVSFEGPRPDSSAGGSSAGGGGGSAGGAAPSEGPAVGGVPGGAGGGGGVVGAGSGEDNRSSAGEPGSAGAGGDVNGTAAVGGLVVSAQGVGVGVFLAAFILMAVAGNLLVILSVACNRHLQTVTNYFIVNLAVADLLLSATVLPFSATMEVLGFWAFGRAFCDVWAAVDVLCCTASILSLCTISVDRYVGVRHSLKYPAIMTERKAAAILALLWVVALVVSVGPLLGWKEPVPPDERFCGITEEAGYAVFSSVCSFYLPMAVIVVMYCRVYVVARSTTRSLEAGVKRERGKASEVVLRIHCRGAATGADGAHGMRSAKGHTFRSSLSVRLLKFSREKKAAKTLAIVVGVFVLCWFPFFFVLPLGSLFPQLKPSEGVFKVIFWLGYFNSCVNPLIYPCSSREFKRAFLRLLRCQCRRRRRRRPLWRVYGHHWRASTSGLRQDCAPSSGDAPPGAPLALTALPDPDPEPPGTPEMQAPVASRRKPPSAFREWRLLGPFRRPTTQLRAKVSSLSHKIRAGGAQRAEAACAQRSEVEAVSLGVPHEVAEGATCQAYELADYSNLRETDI
Briefly: Binding affinity at human cloned Alpha-1D adrenergic receptor in chinese hamster ovary cells by [3H]prazosin displacement. The format is cell-based, CHO.

Assay [5] addresses T3, Adrenergic receptor alpha-2. In words: Antagonism of the clonidine-induced depression of twitch responses of rat isolated prostatic vas deferens.

On to `COc1cc2nc(N(C)CCCCCCN(C)C(=O)c3cccc(CN(C)C)c3)nc(N)c2cc1OC`, for which the Ki is 0.324 nM in assay [1] and 0.245 nM in assay [4]. For the same compound, in assay [2], the Kb was 55 nM. In addition, in assay [3], the “Log Ki” value is -7.72. In assay [5], the pA2 is recorded as under 5.
